In patent US10639300B2, “Compositions and methods for treating nasal and paranasal mucosa diseases with nicotinic acetylcholine receptor agonists” (priority 2016, dated 2020):

What was measured:
[1] = system: patient with nose bleeding and atrophy of the nasal cavity mucous membranes; conditions: person, aqueous solution 2.0 mg/ml with salicylic acid 0.5 mg/ml, one to two drops, three to four times a day
Procedure: The patient was a person with a history of nose bleeding in small quantities and sensation of dryness in the nose and eyes. The patient also reported a long history of joint pain, but no other remarkable antecedents.
The treatment for patient two began with an aqueous solution of (S)-(1-methyl-2-pyrrolidinyl)-pyridine at a concentration of 2.0 mg/ml and salicylic acid at a concentration of 0.5 mg/ml at a dose of one to two drops (about 50 μL per drop) followed by forced inhalation. The dose was repeated three to four times a day.

[2] = system: patient with chronic nasal congestion; conditions: aqueous solution 1.00 mg/ml with salicylic acid 0.5 mg/ml, two drops in each nostril, three or four times a day, follow-up one month later
Excerpt: The patient also complained of frequent headaches in the forehead region.
The dose was repeated three or four times a day. […] It was felt by the clinician that the possible causative agent/s for the chronic nasal congestion may have been external environment factors such as cold, dust, air pollution, second-hand cigarette smoke and/or seasonal allergens such as pollens.

[3] = system: human cancer cells; conditions: experimental cultures of human cancer cells; concentration 5 mg/ml

Question: For CN1CCC[C@H]1c1cccnc1 [(S)-(1-methyl-2-pyrrolidinyl)-pyridine], which “nasal bleeding (patient report)” value ([1]; follow-up one month later) is on record?
Answer: ceased

Question: And the “sensation of dryness in the nose and eyes (patient report)” value ([1]; since the first week of treatment)?
Answer: diminished markedly

Question: And the “patient-reported improvement of symptoms (100% being what the patient considered normal)” value [2]?
Answer: 90%

Question: And the inhibition of proliferation [3]?
Answer: 95%
